According to patent US20180296530A1, “METHOD FOR TREATING ATOPIC DERMATITIS” (priority 2015, published 2018):

Test system: serum total IgE
Assay: Example 5: serum IgE in DNCB-induced AD mouse model
Format: in vivo, Balb/c mice
Settings: 5% melatonin treatment compared with the DNCB-stimulated group, p=0.02, Day 20
Description: The protocol for establishing an AD mouse model in this Example was modified from those described previously. Briefly, referring to FIG. 4, DNCB-induced AD mouse model was prepared by the repeated applications of 20 μL of 1% DNCB in acetone/olive oil (4:1) to the outer and inner surfaces of mouse ears and 100 μL of the same solution to the shaved back skin once on days 1, 2, and 3. Mice of Control group were treated with the identical volumes of vehicle.
The DNCB-sensitized mice were randomly assigned to one of three groups: DNCB (Positive control), DNCB+3% topical melatonin (Treatment: low-dose), DNCB+5% topical melatonin (Treatment: high-dose). Each group (including Control group) consisted of 5 mice. From days 9 to 19, sensitized mice were challenged by applying 0.5% DNCB to the skin surfaces. For the two groups treated with topical melatonin groups, 0.3 mg of topical melatonin ointment (3% or 5% melatonin in Vaseline) was given together with DNCB during the challenge period. […]
Blood and dorsal skin of each mouse were collected on the last day of the experiment (Day 20) and stored at −80° C. until use. Serum IgE levels were measured using the ImmunoCAP fluorescence enzyme immunoassay (Phadia AB, Sweden) according to the manufacturer's instructions. The dorsal skin mRNA expression of the cytokines IL-4, IL-13, and IL-17 were measured by RT-PCR.

COc1ccc2[nH]cc(CCNC(C)=O)c2c1 [Melatonin, melatonin]
serum total IgE level: significantly reduced
